According to article PMC4420247, “8-Triazolylpurines: Towards Fluorescent Inhibitors of the MDM2/p53 Interaction” (PLoS ONE, 2015):

How the values were obtained:
[1] = target: T1, MDM2 (Homo sapiens, UniProt Q00987); test: FP displacement of Texas Red-labelled p53 peptide from MDM2; assay type: binding
[2] = target: T1, MDM2; test: FP displacement of Texas Red-labelled p53 peptide from MDM2; binding confirmed by WaterLOGSY NMR

T1 sequence (Q00987 whole entry): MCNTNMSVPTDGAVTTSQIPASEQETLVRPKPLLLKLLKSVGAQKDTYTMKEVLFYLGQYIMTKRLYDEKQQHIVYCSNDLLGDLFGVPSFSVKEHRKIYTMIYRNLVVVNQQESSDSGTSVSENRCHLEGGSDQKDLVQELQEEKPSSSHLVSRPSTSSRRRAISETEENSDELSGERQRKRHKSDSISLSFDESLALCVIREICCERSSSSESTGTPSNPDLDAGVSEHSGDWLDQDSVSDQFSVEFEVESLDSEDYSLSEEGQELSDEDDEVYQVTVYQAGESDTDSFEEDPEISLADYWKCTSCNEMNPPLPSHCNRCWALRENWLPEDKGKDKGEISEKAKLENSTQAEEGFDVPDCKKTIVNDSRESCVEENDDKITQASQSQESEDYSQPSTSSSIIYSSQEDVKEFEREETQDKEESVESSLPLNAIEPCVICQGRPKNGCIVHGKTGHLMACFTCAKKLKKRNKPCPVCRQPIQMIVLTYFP

| IC50 [1] [µM] | IC50 [2] [µM] | SMILES |
| --- | --- | --- |
| 56 |  | CCCNc1nc(N)c2nc(-c3cn(C)nn3)n(C3Cc4ccccc4C3)c2n1 [14j] |
|  | 10 | CCCNc1nc(NCC(=O)OCC)c2nc(-c3cn(C)nn3)n(C3Cc4ccccc4C3)c2n1 [14f, 6-(Ethoxy-carbonyl-methylamino)-9-(2-indanyl)-8-(1-methyl-1H-1,2,3-triazol-4-yl)-2-(1-propylamino)purine] |
